{"source": "patent US5474898A", "about": "“Octopamine receptor” (The United States of America as represented by the …, priority 1994, dated 1995)", "key": {"[1]": {"target": "T1, Drosophila octopamine receptor (Drosophila melanogaster, UniProt P22270)", "T1 construct": "membranes or whole cells", "T1 sequence (P22270 27-601)": "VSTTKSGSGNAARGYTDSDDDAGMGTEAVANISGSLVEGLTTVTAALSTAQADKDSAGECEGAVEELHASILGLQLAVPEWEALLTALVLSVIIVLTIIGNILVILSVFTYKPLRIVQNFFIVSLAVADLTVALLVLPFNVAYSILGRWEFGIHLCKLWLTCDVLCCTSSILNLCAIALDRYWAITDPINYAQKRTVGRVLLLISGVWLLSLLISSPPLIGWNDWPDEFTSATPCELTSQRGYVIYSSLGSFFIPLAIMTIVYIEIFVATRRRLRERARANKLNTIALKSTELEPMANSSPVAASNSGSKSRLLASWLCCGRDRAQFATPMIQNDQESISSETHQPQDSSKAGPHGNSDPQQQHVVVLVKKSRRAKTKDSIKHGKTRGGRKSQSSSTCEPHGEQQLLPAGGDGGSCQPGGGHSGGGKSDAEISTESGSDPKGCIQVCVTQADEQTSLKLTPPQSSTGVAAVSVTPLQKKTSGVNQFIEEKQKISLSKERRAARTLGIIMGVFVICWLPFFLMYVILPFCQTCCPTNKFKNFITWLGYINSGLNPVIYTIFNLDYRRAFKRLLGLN", "assay": "[3H]yohimbine competition displacement binding to membranes of transfected CHO-K1 cells", "text": "(§1) In a binding assay provided herein, octopamine receptor genes isolated from a specific DNA library are inserted into a plasmid expression vector and used to transfect a Chinese hamster […] cell called CHO-K1 cells. These cells stably integrate the foreign DNA into the genome. Cells that express the insect octopamine receptor and process receptor into the mammalian cell membrane are cloned, expanded and frozen down for further use as membrane preparations in a ligand binding assay. […] After the incubations are terminated, the reaction mixture containing labeled ligand bound to receptor membranes is calculated by measuring label.\n(§2) Cell membranes from transfected cells were prepared as previously described (F.-Z. Chung et al., J. Bol. Chem. 263:4052-4055 (1988); C. M. Fraser et al., Proc. Natl. Acad. Sci. USA 85:5478-5482 (1988), C. M. Fraser et al., J. Biol. Chem. 264:11754-11761 (1989), C. M. Fraser et al., Proc. Nat;. Acad. Sci. USA 85:5478-5482 (1989)).\nMembrane bound octopamine receptors (20 μg of protein)\nconcentrations of the indicated agonists (0.1 μM to 2 mM) or\nantagonists (10 nM to 200 μM). Incubations were performed at 37.degree\nC. for 20 min in a final volume of 250 μl and terminated by filtration\nover Whatman GF/C glass fiber filters. Experiments were repeated three\ntimes in triplicate, and the average inhibition constants (± SD) were\ncaluclated using the LIGAND program of Munson and Rodbard (1980)."}, "[2]": {"target": "T1, Drosophila octopamine receptor", "assay": "Attenuation of forskolin-stimulated cAMP in CHO-K1 cells expressing the Drosophila octopamine receptor", "type": "cell-based", "method": "Transfected cells (3×10^5 cells per dish) were washed once with PBS and incubated in PBS containing 1 mM 3-isobutyl-1-methylxanthine (Sigma) at 37° C. for 20 min. Agonists, at the indicated final concentrations, were added to the cultures along with 10 μM forskolin (Sigma), and cultures were incubated at 37° C. for an additional 20 min. Incubations were terminated by the addition of 6% trichloroacetic acid. Trichloroacetic acid extracts were extracted four times with distilled water-saturated ether, and cMAP concentrations were determined using a cAMP radioimmunoassay kit (New England Nuclear). Data are expressed as percent forskolin-stimulated cAMP production. In the indicated experiments, cell cultures were incubated with Bordetella pertussis islet activating protein (200 ng/ml; list biological lab) at 37° C. for 18 hr in normal culture medium prior to the assay of cAMP. Solid and open squares represent data obtained with octopamine in transfected and control cells, respectively. Solid circles represent data with epinephrine in transfected cells. […] Data represent the average ±SEM of at least three separate experiments performed in duplicate.\n(§3) Another aspect of the present invention relates to another drug screening method that identifies new compounds with biogenic amine (agonists) or antagonist activity for biogenic receptors by measuring adenylate cyclase concentrations in transfected CHO-K1 cells expressing octopamine receptors. In one embodiment, potential drugs are tested for their ability to attenuate forskolin-stimulated adenylate cyclase activity. Forskolin is added to control or octopamine receptor transfected CHO-K1 cells that stimulates increased intracellular cAMP levels in transfected cells over basal CHO-K1 levels. In the presence of forskolin, known concentrations of octopamine are added and the attenuation of forskolin stimulated cyclase AMP is calculated. A potential antagonist is determined by the competitive reversal of octopamine mediated attenuation of forskolin stimulated cyclic AMP accumulation when the drug is added to the assayed transfected cells.\nBecause of the pharmacological and structural similarities of the Drosophila receptor to mammalian […] receptors, the ability of octopamine to attenuate forskolin-stimulated adenylate cyclase activity was tested."}, "[3]": {"tested_on": "control CHO-K1 cells", "assay": "Attenuation of forskolin-stimulated cAMP in control CHO-K1 cells", "type": "cell-based, Chinese hamster", "details": "10 μM forskolin (FIG. 4)", "method": "(§4) Transfected cells (3×10^5 cells per dish) were washed once with PBS and incubated in PBS containing 1 mM 3-isobutyl-1-methylxanthine (Sigma) at 37° C. for 20 min. Agonists, at the indicated final concentrations, were added to the cultures along with 10 μM forskolin (Sigma), and cultures were incubated at 37° C. for an additional 20 min. Incubations were terminated by the addition of 6% trichloroacetic acid. Trichloroacetic acid extracts were extracted four times with distilled water-saturated ether, and cMAP concentrations were determined using a cAMP radioimmunoassay kit (New England Nuclear). Data are expressed as percent forskolin-stimulated cAMP production. […]\nas §3, with “In one embodiment, potential drugs are tested for their ability to attenuate forskolin-stimulated adenylate cyclase activity. Forskolin is added to control or octopamine receptor transfected CHO-K1 cells that stimulates increased intracellular cAMP levels in transfected cells over basal CHO-K1 levels.” left out, “cells. […]” for “cells.”"}, "[4]": {"tested_on": "Octampamine1", "details": "locust neuromuscular preparation; data from Evans (1981/1982); cited from earlier work"}, "[5]": {"tested_on": "Octapamine2", "details": "locust neuromuscular preparation; data from Evans (1981/1982); cited from earlier work"}, "[6]": {"tested_on": "Octopamine20", "details": "locust neuromuscular preparation; data from Evans (1981/1982); cited from earlier work"}, "[7]": {"target": "T1, Drosophila octopamine receptor", "assay": "[3H]yohimbine saturation binding to membranes of transfected CHO-K1 cells", "text": "as §1, §2"}, "[8]": {"tested_on": "control, untransfected CHO-K1 cells", "assay": "[3H]yohimbine binding to membranes of control, untransfected CHO-K1 cells", "parameters": "species or system Chinese hamster", "details": "untransfected CHO-K1 cell membranes", "text": "as §1, §2"}, "[9]": {"tested_on": "adenylate cyclase", "assay": "Forskolin stimulation of intracellular cAMP in control or transfected CHO-K1 cells", "details": "Cricetulus griseus, CHO-K1, 20 min, read-out: increase in intracellular cAMP levels over basal values", "method": "as §4\nas §3, with “In one embodiment, potential drugs are tested for their ability to attenuate forskolin-stimulated adenylate cyclase activity. Forskolin is added to control or octopamine receptor transfected CHO-K1 cells that stimulates increased intracellular cAMP levels in transfected cells over basal CHO-K1 levels.” left out, “cells. […]” for “cells.”"}, "[10]": {"details": "displacement of 6 nM [3H]yohimbine, 37° C., 20 min, average ± SD, three times in triplicate, read-out: K1"}}, "note": "Like-named read-outs stand apart in the source and are kept apart here.", "data": [{"smiles": "NCC(O)c1ccc(O)cc1", "note": "(racemic) [Octopamine(±), Octopamine]", "values": [{"measurement": "Ki", "setting": "[1]; read-out: Ki", "value": "29 ± 6", "unit": "µM"}, {"measurement": "activity at 100 µM", "setting": "[2]; CHO-K1, 20 min, 100 μM octopamine plus 10 μM forskolin, transfected cells, read-out: cAMP levels, % of those seen with forskolin alone", "value": 46, "unit": "%"}, {"measurement": "ability to attenuate forskolin-stimulated cAMP levels after Bordetella pertussis islet activating protein", "setting": "[2]; transfected cells pretreated with pertussis toxin 200 ng/ml, 18 hr", "value": "abolished"}, {"measurement": "attenuation of forskolin-stimulated cAMP levels", "setting": "[2]; transfected cells, 10 μM forskolin (FIG. 4)", "value": "dose-dependent attenuation of forskolin-stimulated cAMP levels"}, {"measurement": "attenuation of forskolin-stimulated cAMP levels", "setting": "[3]", "value": "not observed in control cells"}]}, {"smiles": "CNCC(O)c1ccc(O)cc1", "note": "(racemic) [Synephrine(±), Synephrine]", "values": [{"measurement": "Ki", "setting": "[1]", "value": "10.8 ± 2.5", "unit": "µM"}]}, {"smiles": "CN(C)CCCN1c2ccccc2Sc2ccc(Cl)cc21", "note": "[Chlorpromazine]", "values": [{"measurement": "Ki", "setting": "[1]", "value": "0.18 ± 0.06", "unit": "µM"}, {"measurement": "EC50", "setting": "[4]", "value": 0.026, "unit": "µM"}]}, {"smiles": "Clc1cccc(Cl)c1N=C1NCCN1", "note": "[Clonidine]", "values": [{"measurement": "Ki", "setting": "[1]", "value": "21 ± 7", "unit": "µM"}, {"measurement": "EC50", "setting": "[4]", "value": 0.00068, "unit": "µM"}, {"measurement": "EC50", "setting": "[5]", "value": 6.4, "unit": "µM"}]}, {"smiles": "NCCc1ccc(O)c(O)c1", "note": "[Dopamine]", "values": [{"measurement": "Ki", "setting": "[1]; [10]", "value": "> 1000", "unit": "µM"}, {"measurement": "Ki", "setting": "[1]; read-out: Ki", "value": "> 1000", "unit": "µM"}]}, {"smiles": "CNC[C@H](O)c1ccc(O)c(O)c1", "note": "[Epinephrine(-), Epinephrine]", "values": [{"measurement": "Ki", "setting": "[1]", "value": "139 ± 41", "unit": "µM"}, {"measurement": "attenuation of forskolin-stimulated cAMP levels", "setting": "[2]", "value": "no effect on forskolin-stimulated cAMP levels"}, {"measurement": "attenuation of forskolin-stimulated cAMP levels", "setting": "[3]", "value": "no effect on forskolin-stimulated cAMP levels"}]}, {"smiles": "CC(C)NCC(O)c1ccc(O)c(O)c1", "note": "(stereo not drawn) [Isoproterenol(-), Isoproterenol]", "values": [{"measurement": "Ki", "setting": "[1]; [10]", "value": "> 1000", "unit": "µM"}, {"measurement": "Ki", "setting": "[1]; read-out: Ki", "value": "> 1000", "unit": "µM"}]}, {"smiles": "CCN(CC)CCNC(=O)c1cc(Cl)c(N)cc1OC", "note": "[Metoclopramide]", "values": [{"measurement": "Ki", "setting": "[1]; read-out: K1", "value": "4.6 ± 1.4", "unit": "µM"}, {"measurement": "EC50, Octampamine1", "setting": "[4]", "value": "No effect-10^-6"}, {"measurement": "EC50", "setting": "[5]", "value": 1, "unit": "µM"}, {"measurement": "EC50", "setting": "[6]", "value": 9.5, "unit": "µM"}]}, {"smiles": "Cc1ccc(N(CC2=NCCN2)c2cccc(O)c2)cc1", "note": "[Phentolamine]", "values": [{"measurement": "Ki", "setting": "[1]; read-out: K1", "value": "2.2 ± 0.7", "unit": "µM"}, {"measurement": "EC50", "setting": "[4]", "value": 0.0019, "unit": "µM"}]}, {"smiles": "NCCc1c[nH]c2ccc(O)cc12", "note": "[Serotonin]", "values": [{"measurement": "Ki", "setting": "[1]", "value": "75 ± 18", "unit": "µM"}]}, {"smiles": "COC(=O)[C@@H]1[C@H]2C[C@H]3c4[nH]c5ccccc5c4CCN3C[C@@H]2CC[C@@H]1O", "note": "[Yohimbine]", "values": [{"measurement": "antagonism of octopamine-mediated attenuation of forskolin stimulated cAMP accumulation", "setting": "[2]; transfected cells, 10 μM yohimbine (FIG. 4)", "value": "competitively antagonized"}, {"measurement": "EC50", "setting": "[4]", "value": 0.28, "unit": "µM"}]}, {"smiles": "COC(=O)[C@@H]1[C@H]2C[C@H]3c4[nH]c5ccccc5c4CCN3C[C@@H]2CC[C@@H]1O", "note": "[[^3 H]yohimbine]", "values": [{"measurement": "Kd", "setting": "[7]", "value": 0.0062, "unit": "µM"}, {"measurement": "Bmax", "setting": "[7]; transfected cell membranes", "value": "1.75 pmol of receptor per mg of membrane protein"}, {"measurement": "specific radioligand binding", "setting": "[8]", "value": "No specific radioligand binding was observed"}]}, {"smiles": "C=C[C@@]1(C)CC(=O)[C@]2(O)[C@@]3(C)[C@@H](O)CCC(C)(C)[C@@H]3[C@H](O)[C@H](OC(C)=O)[C@@]2(C)O1", "note": "[forskolin]", "values": [{"measurement": "fold induction at 10 µM", "setting": "[9]", "value": 35}]}]}
